# From ChEMBL document CHEMBL6092122, “Nonenzymatic Sequestering of Formaldehyde into the Antibiotic Methylene-Bridged Dimer Phaeochromycin F by Streptomyces sp. OUCMDZ-4982 as a Possible Multipronged Chemical Defense Mechanism” (J Nat Prod, 2024)
# Activity calls are given as the source filed them. No cut-off for these calls is given here.
# Legend:
# Nakaseomyces glabratus = assay: Antifungal activity against Candida glabrata ATCC 2001 incubated for 24 hrs by microdilution method; format: functional, organism-based
# Escherichia coli = assay: Antibacterial activity against Escherichia coli ATCC 11175 incubated for 24 hrs by microdilution method; format: functional, organism-based
# Candida albicans = assay: Antifungal activity against Candida albicans ATCC 10231 incubated for 24 hrs by microdilution method; format: functional, organism-based
# Pseudomonas aeruginosa = assay: Antibacterial activity against Pseudomonas aeruginosa ATCC 10145 incubated for 24 hrs by microdilution method; format: functional, organism-based
# Bacillus subtilis [1] = assay: Antibacterial activity against Bacillus subtilis ATCC 6051 incubated for 24 hrs by microdilution method; format: functional
# Staphylococcus aureus [2] = assay: Antibacterial activity against Staphylococcus aureus ATCC 6538 incubated for 24 hrs by microdilution method; format: functional
# Bacillus subtilis [3] = assay: Bactericidal activity against Bacillus subtilis ATCC 6051 incubated for 24 hrs by microdilution method; format: functional
# Staphylococcus aureus [4] = assay: Antibacterial activity against Staphylococcus aureus ATCC 43300 incubated for 24 hrs by microdilution method; format: functional
# Staphylococcus aureus [5] = assay: Bactericidal activity against Staphylococcus aureus ATCC 43300 incubated for 24 hrs by microdilution method; format: functional
# [6] = Drug metabolism in Staphylococcus aureus ATCC 6538 assessed as reduction in 5-((4-hydroxy-2-oxo-2H-pyran-6-yl)methyl)-2-methyl-4H-chromen-4-one content incubated for 1 hr by LC-MS analysis; format: ADME
# Staphylococcus aureus [7] = assay: Induction of drug resistance in Staphylococcus aureus ATCC 6538 assessed as increase in MIC measured after 20 passages incubated for 24 hrs; format: functional, organism-based
# Staphylococcus aureus [8] = assay: Bacteriostatic activity against methicillin-resistant Staphylococcus aureus ATCC 43300 assessed as reduction in bacterial colonies at 2 to 8 times MIC measured after 24 hrs by time kill assay; format: functional, organism-based
# [9] = Drug metabolism in Staphylococcus aureus ATCC 6538 assessed as reduction in formaldehyde content incubated for 1 hr by LC-MS analysis; format: ADME
# Staphylococcus aureus [10] = assay: Bactericidal activity against Staphylococcus aureus ATCC 6538 incubated for 24 hrs by microdilution method; format: functional
# Staphylococcus aureus [11] = assay: Antibacterial activity against methicillin-resistant Staphylococcus aureus ATCC 43300 incubated for 24 hrs by microdilution method; format: functional
# [12] = Chemical reactivity of compound in acetaldehyde assessed as (1S,2R,18R,19R,22S,25R,28R,40S)-48-[(2S,3R,4S,5S,6R)-3-[(2S,4S,5S,6S)-4-amino-5-hydroxy-4,6-dimethyl-tetrahydropyran-2-yl]oxy-4,5-dihydroxy-6-(hydroxymethyl)tetrahydropyran-2-yl]oxy-22-(2-amino-2-oxo-ethyl)-5,15-dichloro-2,18,32,35,37-pentahydroxy-19-[(2R,4R)-4-isobutyl-2,3-dimethyl-5-oxo-imidazolidin-1-yl]-20,23,26,42,44-pentaoxo-7,13-di …; format: physicochemical
# [13] = Chemical reactivity of compound in formaldehyde assessed as (1S,2R,18R,19R,22S,25R,28R,40S)-48-[(2S,3R,4S,5S,6R)-3-[(2S,4S,5S,6S)-4-amino-5-hydroxy-4,6-dimethyl-tetrahydropyran-2-yl]oxy-4,5-dihydroxy-6-(hydroxymethyl)tetrahydropyran-2-yl]oxy-22-(2-amino-2-oxo-ethyl)-5,15-dichloro-2,18,32,35,37-pentahydroxy-19-[(4R)-4-isobutyl-3-methyl-5-oxo-imidazolidin-1-yl]-20,23,26,42,44-pentaoxo-7,13-dioxa-21, …; format: physicochemical
# [14] = Chemical reactivity of compound in formaldehyde assessed as (4R,4aR,5aS,12aR)-9-(3-(tert-butyl)-5-oxoimidazolidin-1-yl)-4,7-bis(dimethylamino)-3,10,12,12a-tetrahydroxy-1,11-dioxo-1,4,4a,5,5a,6,11,12a-octahydrotetracene-2-carboxamide formation; format: physicochemical
Structure (SMILES),Activity (Nakaseomyces glabratus),Activity (Escherichia coli),Activity (Candida albicans),Activity (Pseudomonas aeruginosa),other results
CCOC(=O)C[C@@H]1Oc2cc(C)oc(=O)c2[C@@H]1c1c(O)cc(C)oc1=O,inactive,inactive,inactive,inactive,–
O=C(O)c1cn(C2CC2)c2cc(N3CCNCC3)c(F)cc2c1=O [CIPROFLOXACIN],–,–,–,–,MIC (Bacillus subtilis [1]): 0.13 µg/mL; MIC (Staphylococcus aureus [2]): 0.5 µg/mL; MBC (Bacillus subtilis [3]): 0.13 µg/mL; MIC (Staphylococcus aureus [4]): 1 µg/mL; MBC (Staphylococcus aureus [5]): 4 µg/mL
Cc1cc(=O)c2c(Cc3cc(O)c(Cc4c(O)cc(Cc5cccc6oc(C)cc(=O)c56)oc4=O)c(=O)o3)cccc2o1,inactive,inactive,inactive,inactive,Drug metabolism [6]: metabolite_notdetected; MIC (Bacillus subtilis [1]): 0.5 µg/mL; MIC (Staphylococcus aureus [2]): 1 µg/mL; Activity (Staphylococcus aureus [7]): inactive; Activity (Staphylococcus aureus [8]): Active; Drug metabolism [9]: metabolite_notdetected; MBC (Bacillus subtilis [3]): 1 µg/mL; MIC (Staphylococcus aureus [4]): 2 µg/mL; MBC (Staphylococcus aureus [10]): 4 µg/mL; MBC (Staphylococcus aureus [5]): 8 µg/mL
Cc1cc(=O)c2c(Cc3cc(O)c(Cc4c(O)cc(Cc5cc(=O)c6c(C)cc(O)cc6o5)oc4=O)c(=O)o3)cccc2o1,inactive,inactive,inactive,inactive,–
Cc1cc(=O)c2c(Cc3cc(O)c([C@H]4c5c(cc(Cc6cccc7oc(C)cc(=O)c67)oc5=O)O[C@H]4CC(=O)O)c(=O)o3)cccc2o1,inactive,inactive,inactive,inactive,–
Cc1cc(=O)c2c(Cc3cc(O)c(Cc4c(O)cc(Cc5cc(O)cc6c5C(=O)CC(C)(O)O6)oc4=O)c(=O)o3)cccc2o1 (stereo unspecified),inactive,inactive,inactive,inactive,–
CN(C)c1cc(NC(=O)CNC(C)(C)C)c(O)c2c1C[C@H]1C[C@H]3[C@H](N(C)C)C(O)=C(C(N)=O)C(=O)[C@@]3(O)C(O)=C1C2=O [TIGECYCLINE],–,–,–,–,MIC (Staphylococcus aureus [11]): 0.5 µg/mL; Activity [12]: Active; Activity [13]: Active; Activity [14]: Active; MIC (Staphylococcus aureus [4]): 0.5 µg/mL
CC(=O)CC(c1c(O)cc(Cc2cccc3oc(C)cc(=O)c23)oc1=O)c1c(O)cc(Cc2cccc3oc(C)cc(=O)c23)oc1=O,inactive,inactive,inactive,inactive,–
CC1(O)CC(=O)c2c(Cc3cc(O)c(Cc4c(O)cc(Cc5cccc6c5C(=O)CC(C)(O)O6)oc4=O)c(=O)o3)cccc2O1 (stereo unspecified),inactive,inactive,inactive,inactive,–
Cc1cc(=O)c2c(Cc3cc(O)c(Cc4c(O)cc(Cc5cccc6c5C(=O)CC(C)(O)O6)oc4=O)c(=O)o3)cccc2o1 (stereo unspecified),inactive,inactive,inactive,inactive,–
CCOC(=O)/C=C/C(c1c(O)cc(C)oc1=O)c1c(O)cc(C)oc1=O,inactive,inactive,inactive,inactive,–
